# US20230040770A1, “HETEROCYCLIC COMPOUND AND USE THEREOF” (TAKEDA PHARMACEUTICAL COMPANY LIMITED, priority 2019, published 2023)
# Target: T1, human orexin type 2 receptor (Homo sapiens, UniProt O43614)
# T1 construct: expressed in transfected cells
# T1 sequence (O43614 1-444): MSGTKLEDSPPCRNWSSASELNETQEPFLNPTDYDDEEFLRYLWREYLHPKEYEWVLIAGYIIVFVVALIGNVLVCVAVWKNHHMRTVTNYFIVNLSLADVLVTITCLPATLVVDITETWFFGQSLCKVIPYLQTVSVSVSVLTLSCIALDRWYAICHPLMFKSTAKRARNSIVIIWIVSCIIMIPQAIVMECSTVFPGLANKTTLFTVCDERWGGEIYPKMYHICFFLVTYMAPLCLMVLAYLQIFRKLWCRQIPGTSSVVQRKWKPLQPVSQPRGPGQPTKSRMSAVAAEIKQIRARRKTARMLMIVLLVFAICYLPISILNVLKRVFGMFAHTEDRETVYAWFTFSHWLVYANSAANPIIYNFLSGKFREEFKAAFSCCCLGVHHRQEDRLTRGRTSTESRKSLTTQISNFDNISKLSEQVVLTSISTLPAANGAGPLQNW
# Assay: Measurement of orexin type 2 receptor agonist activity (calcium indicator fluorescence, CHO cells forcibly expressing human OX2 receptor)
# Type: cell-based
# Settings: compound at 3 μM; 0% = DMSO, 100% = orexin A (human) 10 nM
# Excerpt: To obtain a cell clone stably expressing human orexin type 2 receptor, human orexin type 2 receptor cDNA was inserted into pcDNA3.1(+) plasmid vector (Invitrogen), and a plasmid DNA for expression of human orexin type 2 receptor (pcDNA3.1(+)/hOX2R) was cloned. The plasmid DNA was introduced into CHO-dhfr cell by an electroporation method, and human orexin type 2 receptor expressing clone cells were obtained by limiting dilution method by using G418 drug resistance as a selection marker.
# CHO cells forcibly expressing human OX2 receptor were seeded in each well of 384 well black transparent bottom plate (BD Falcon) at 7,500 cells/well, and cultured for one day in a 5% CO2 incubator at 37° C. After removal of the medium in the cell plate, assay buffer A containing a calcium indicator (HBSS (Thermo Fisher Scientific), 20 mM HEPES (Thermo Fisher Scientific), 0.1% BSA (Sigma-Aldrich), 2.5 μg/mL Fluo-4 AM (DOJINDO Chemical), 0.08% Pluronic F127 (DOJINDO Chemical), 1.25 mM probenecid (DOJINDO Chemical)) was added at 30 μL/well. The plate was stood for 30 min in a 5% CO2 incubator at 37° C., and further stood at room temperature for 30 min. A test compound prepared by diluting with assay buffer B (HBSS, 20 mM HEPES, 0.1% BSA) was added at 10 μL/well, and the fluorescence value was measured by FDSSμCELL (Hamamatsu Photonics K.K.) every one sec for 1 min, and thereafter every two sec for […]. The activity (%) of the test compound was calculated assuming that variation in the fluorescence value when DMSO was added instead of the test compound was 0%, and variation in the fluorescence value when orexin A (human) (PEPTIDE INSTITUTE, INC.) was added at the final concentration of 10 nM was 100%.
row,SMILES,"OX2R agonist activity (3 μM, %) [%]"
1,"CCS(=O)(=O)N[C@H]1[C@@H](F)CN(C(=O)N(C)C)[C@H]1Cc1cccc(-c2ccc(F)c(C)c2)c1F [Example 409, (2S,3R,4S)-2-[(2,4′-difluoro-3′-methyl[1,1′-biphenyl]-3-yl)methyl]-3-[(ethanesulfonyl)amino]-4-fluoro-N,N-dimethylpyrrolidine-1-carboxamide]",92
2,"CS(=O)(=O)N[C@@H]1[C@H](Cc2cccc(-c3cc(F)cc(Cl)c3)c2F)N(C(=O)C2CCO2)CC1(F)F (stereo partly drawn) [Example 266, N-[(2S,3R)-2-[(3′-chloro-2,5′-difluoro[1,1′-biphenyl]-3-yl)methyl]-4,4-difluoro-1-(oxetane-2-carbonyl)pyrrolidin-3-yl]methanesulfonamide]",83
3,"CCS(=O)(=O)N[C@H]1[C@@H](F)CN(C(=O)C2CCO2)[C@H]1Cc1cccc(-c2cc(F)cc(F)c2)c1F (stereo partly drawn) [Example 305, N-{(2S,3R,4S)-4-fluoro-1-(oxetane-2-carbonyl)-2-[(2,3′,5′-trifluoro[1,1′-biphenyl]-3-yl)methyl]pyrrolidin-3-yl}ethanesulfonamide]",103
4,"CC(C)(O)C(=O)N1C[C@H](F)[C@H](NS(C)(=O)=O)[C@@H]1Cc1cccc(-c2cccc(Cl)c2)c1F [Example 388, N-[(2S,3R,4S)-2-[(3′-chloro-2-fluoro[1,1′-biphenyl]-3-yl)methyl]-4-fluoro-1-(2-hydroxy-2-methylpropanoyl)pyrrolidin-3-yl]methanesulfonamide]",89
5,"CN(C)C(=O)N1CC(F)(F)[C@H](NS(=O)(=O)N(C)C)[C@@H]1Cc1cccc(-c2cc(F)cc(F)c2)c1F [Example 532, (2S,3R)-3-[(dimethylsulfamoyl)amino]-4,4-difluoro-N,N-dimethyl-2-[(2,3′,5′-trifluoro[1,1′-biphenyl]-3-yl)methyl]pyrrolidine-1-carboxamide]",96
6,"CCS(=O)(=O)N[C@@H]1[C@H](Cc2cccc(-c3cccc(Cl)c3)c2F)N(C(=O)C2CCO2)CC1(F)F (stereo partly drawn) [Example 268, N-[(2S,3R)-2-[(3′-chloro-2-fluoro[1,1′-biphenyl]-3-yl)methyl]-4,4-difluoro-1-(oxetane-2-carbonyl)pyrrolidin-3-yl]ethanesulfonamide]",94
7,"CS(=O)(=O)N[C@H]1[C@@H](F)CN(C(=O)C2CCO2)[C@H]1Cc1cccc(-c2cccc(Cl)c2)c1F (stereo partly drawn) [Example 328, N-[(2S,3R,4S)-2-[(3′-chloro-2-fluoro[1,1′-biphenyl]-3-yl)methyl]-4-fluoro-1-(oxetane-2-carbonyl)pyrrolidin-3-yl]methanesulfonamide]",86
8,"CN(C)C(=O)N1C[C@H](F)[C@H](NS(=O)(=O)C2CC2)[C@@H]1Cc1cccc(-c2cccc(F)c2)c1F [Example 387, (2S,3R,4S)-3-[(cyclopropanesulfonyl)amino]-2-[(2,3′-difluoro[1,1′-biphenyl]-3-yl)methyl]-4-fluoro-N,N-dimethylpyrrolidine-1-carboxamide]",85
9,"CC(C)C(=O)N1CC(F)(F)[C@H](NS(=O)(=O)C2CC2)[C@@H]1Cc1cccc(-c2ccccc2)c1F [Example 171, N-[(2S,3R)-4,4-difluoro-2-[(2-fluoro[1,1′-biphenyl]-3-yl)methyl]-1-(2-methylpropanoyl)pyrrolidin-3-yl]cyclopropanesulfonamide]",99
10,"CCS(=O)(=O)N[C@@H]1[C@H](Cc2cccc(-c3cc(F)c(F)c(F)c3)c2F)N(C(=O)C2CCO2)CC1(F)F (stereo partly drawn) [Example 475, N-{(2S,3R)-4,4-difluoro-1-(oxetane-2-carbonyl)-2-[(2,3′,4′,5′-tetrafluoro[1,1′-biphenyl]-3-yl)methyl]pyrrolidin-3-yl}ethanesulfonamide]",100
11,"CC(C)C(=O)N1CC(F)(F)[C@H](NS(C)(=O)=O)[C@@H]1Cc1cccc(-c2cc(F)cc(F)c2)c1 [Example 35, N-[(2S,3R)-2-[(3′,5′-difluoro[1,1′-biphenyl]-3-yl)methyl]-4,4-difluoro-1-(2-methylpropanoyl)pyrrolidin-3-yl]methanesulfonamide]",96
12,"CCS(=O)(=O)N[C@@H]1[C@H](Cc2cccc(-c3cc(F)cc(F)c3)c2F)N(C(=O)[C@H]2CCCO2)CC1(F)F [Example 454, N-{(2S,3R)-4,4-difluoro-1-[(2R)-oxolane-2-carbonyl]-2-[(2,3′,5′-trifluoro[1,1′-biphenyl]-3-yl)methyl]pyrrolidin-3-yl}ethanesulfonamide]",84
13,"CCS(=O)(=O)N[C@@H]1[C@H](Cc2cccc(-c3cccc(F)c3)c2F)N(C(=O)[C@H]2CCCO2)CC1(F)F [Example 453, N-{(2S,3R)-2-[(2,3′-difluoro[1,1′-biphenyl]-3-yl)methyl]-4,4-difluoro-1-[(2R)-oxolane-2-carbonyl]pyrrolidin-3-yl}ethanesulfonamide]",85
14,"CCS(=O)(=O)N[C@@H]1[C@H](Cc2cccc(-c3cccc(F)c3)c2F)N(C(=O)N2CCC2)CC1(F)F [Example 287, N-{(2S,3R)-1-(azetidine-1-carbonyl)-2-[(2,3′-difluoro[1,1′-biphenyl]-3-yl)methyl]-4,4-difluoropyrrolidin-3-yl}ethanesulfonamide]",94
15,"CCS(=O)(=O)N[C@H]1[C@@H](F)CN(C(=O)[C@H]2CCCO2)[C@H]1Cc1cccc(-c2ccccc2)c1F [Example 413, N-{(2S,3R,4S)-4-fluoro-2-[(2-fluoro[1,1′-biphenyl]-3-yl)methyl]-1-[(2R)-oxolane-2-carbonyl]pyrrolidin-3-yl}ethanesulfonamide]",99
16,"CCS(=O)(=O)N[C@@H]1[C@H](Cc2cccc(-c3cccc(OC)c3)c2F)N(C(=O)C(C)C)CC1(F)F [Example 511, N-[(2S,3R)-4,4-difluoro-2-[(2-fluoro-3′-methoxy[1,1′-biphenyl]-3-yl)methyl]-1-(2-methylpropanoyl)pyrrolidin-3-yl]ethanesulfonamide]",98
17,"CCS(=O)(=O)N[C@H]1[C@@H](F)CN(C(=O)[C@H]2CCCO2)[C@H]1Cc1cccc(-c2cc(F)ccc2F)c1F [Example 416, N-{(2S,3R,4S)-4-fluoro-1-[(2R)-oxolane-2-carbonyl]-2-[(2,2′,5′-trifluoro[1,1′-biphenyl]-3-yl)methyl]pyrrolidin-3-yl}ethanesulfonamide]",101
18,"CCS(=O)(=O)N[C@H]1[C@@H](F)CN(C(=O)[C@H]2CCCO2)[C@H]1Cc1cccc(-c2cc(F)cc(F)c2)c1F [Example 414, N-{(2S,3R,4S)-4-fluoro-1-[(2R)-oxolane-2-carbonyl]-2-[(2,3′,5′-trifluoro[1,1′-biphenyl]-3-yl)methyl]pyrrolidin-3-yl}ethanesulfonamide]",95
19,"O=C(C1CCO1)N1C[C@H](F)[C@H](NS(=O)(=O)C2CC2)[C@@H]1Cc1cccc(-c2ccccc2F)c1F (stereo partly drawn) [Example 483, N-[(2S,3R,4S)-2-[(2,2′-difluroo[1,1′-biphenyl]-3-yl)methyl]-4-fluoro-1-(oxetane-2-carbonyl)pyrrolidin-3-yl]cyclopropanesulfonamide]",108
20,"CCS(=O)(=O)N[C@H]1[C@@H](F)CN(C(=O)C(C)(C)O)[C@H]1Cc1cccc(-c2cc(Cl)ccc2F)c1F [Example 348, N-[(2S,3R,4S)-2-[(5′-chloro-2,2′-difluoro[1,1′-biphenyl]-3-yl)methyl]-4-fluoro-1-(2-hydroxy-2-methylpropanoyl)pyrrolidin-3-yl]ethanesulfonamide]",103
21,"CCS(=O)(=O)N[C@@H]1[C@H](Cc2cccc(-c3ccccc3)c2F)N(C(=O)N2CCC2)CC1(F)F [Example 228, N-{(2S,3R)-1-(azetidine-1-carbonyl)-4,4-difluoro-2-[(2-fluoro[1,1′-biphenyl]-3-yl)methyl]pyrrolidin-3-yl}ethanesulfonamide]",99
22,"Cc1cccc(-c2cccc(C[C@H]3[C@@H](NS(=O)(=O)C4CC4)C(F)(F)CN3C(=O)C3CCO3)c2F)c1 (stereo partly drawn) [Example 428, N-[(2S,3R)-4,4-difluoro-2-[(2-fluoro-3′-methyl[1,1′-biphenyl]-3-yl)methyl]-1-(oxetane-2-carbonyl)pyrrolidin-3-yl]cyclopropanesulfonamide]",100
